Reference: patent US6191288A, “Pyronin antibacterials, process and novel intermediates thereto” (Anadys Pharmaceuticals, Inc., priority 1999, dated 2001)
pIC50: −log10 of the molar value. Converted amounts (≈) assume the structure as drawn. Where two headings read alike, the source gives them in different places.

What was measured:
[1] = target: S. aureus RNAP (Staphylococcus aureus, UniProt P47768+Q2G0N5); test: In vitro transcription assay, S. aureus RNAP; type: biochemical
Description: (§1) In vitro transcription reactions. [α-^32 P] UTP-incorporated RNA was synthesized in 50 μl reaction volumes containing transcription buffer (50 mM Tris-HCl, pH 8.0, 200 mM KCL, 10 mM MgCl2, 10 mM DTT and 1.5 μM BSA), […] of DNA template, 4 μM UTP containing 5 μl of [α-^32 P] UTP, 400 μM each of ATP, GTP, and CTP. After incubation for 60 minutes at 25 ° C., the reaction is terminated with 100 μl 10% TCA, which also recipitates the newly transcribed RNA.

[2] = tested on: E. coli; test: MBC, E. coli; type: cell-based; conditions: Escherichia coli
Description: (§2) The minimum bactericidal concentration (MBC) is defined as the concentration of antimicrobial agent from which no colonies grow on petri plates or in the medium. In practice, the MBC is arbitrarily defined as the concentration at which a 1000-fold reduction in colony forming units is observed with respect to the original inoculum (survival of 0. 1%). The broth dilution method consists of inoculating the wells from an MIC microliter plate using a 96-well inoculation grid into a fresh microliter plate containing 100 μl. Mueller-Hinton broth per well. The MBC plates are incubated at 37° C. for 16-20 hrs and the MBC values are determined.

[3] = tested on: S. aureus; test: MBC, S. aureus; type: cell-based; conditions: Staphylococcus aureus, Table II
Description: as §2

[4] = target: Human RNAP (Homo sapiens, UniProt P24928+P30876); test: biochemical; conditions: Table II, in vitro transcription; read-out: IC50 human pol II
Description: as §1

[5] = target: E. coli RNA polymerase (Escherichia coli, UniProt P0A8T7+P0A8V2); test: In vitro transcription assay, E. coli RNA polymerase; type: biochemical; conditions: for Relative potency in the in vitro transcription assay using E. coli RNA polymerase: FIGS. 20a,b, comparison in words; for IC50: Table II, in vitro transcription, read-out: IC50 E. coli (source of polymerase) (converted)
Sequence of E. coli RNA polymerase (P0A8V2 whole entry): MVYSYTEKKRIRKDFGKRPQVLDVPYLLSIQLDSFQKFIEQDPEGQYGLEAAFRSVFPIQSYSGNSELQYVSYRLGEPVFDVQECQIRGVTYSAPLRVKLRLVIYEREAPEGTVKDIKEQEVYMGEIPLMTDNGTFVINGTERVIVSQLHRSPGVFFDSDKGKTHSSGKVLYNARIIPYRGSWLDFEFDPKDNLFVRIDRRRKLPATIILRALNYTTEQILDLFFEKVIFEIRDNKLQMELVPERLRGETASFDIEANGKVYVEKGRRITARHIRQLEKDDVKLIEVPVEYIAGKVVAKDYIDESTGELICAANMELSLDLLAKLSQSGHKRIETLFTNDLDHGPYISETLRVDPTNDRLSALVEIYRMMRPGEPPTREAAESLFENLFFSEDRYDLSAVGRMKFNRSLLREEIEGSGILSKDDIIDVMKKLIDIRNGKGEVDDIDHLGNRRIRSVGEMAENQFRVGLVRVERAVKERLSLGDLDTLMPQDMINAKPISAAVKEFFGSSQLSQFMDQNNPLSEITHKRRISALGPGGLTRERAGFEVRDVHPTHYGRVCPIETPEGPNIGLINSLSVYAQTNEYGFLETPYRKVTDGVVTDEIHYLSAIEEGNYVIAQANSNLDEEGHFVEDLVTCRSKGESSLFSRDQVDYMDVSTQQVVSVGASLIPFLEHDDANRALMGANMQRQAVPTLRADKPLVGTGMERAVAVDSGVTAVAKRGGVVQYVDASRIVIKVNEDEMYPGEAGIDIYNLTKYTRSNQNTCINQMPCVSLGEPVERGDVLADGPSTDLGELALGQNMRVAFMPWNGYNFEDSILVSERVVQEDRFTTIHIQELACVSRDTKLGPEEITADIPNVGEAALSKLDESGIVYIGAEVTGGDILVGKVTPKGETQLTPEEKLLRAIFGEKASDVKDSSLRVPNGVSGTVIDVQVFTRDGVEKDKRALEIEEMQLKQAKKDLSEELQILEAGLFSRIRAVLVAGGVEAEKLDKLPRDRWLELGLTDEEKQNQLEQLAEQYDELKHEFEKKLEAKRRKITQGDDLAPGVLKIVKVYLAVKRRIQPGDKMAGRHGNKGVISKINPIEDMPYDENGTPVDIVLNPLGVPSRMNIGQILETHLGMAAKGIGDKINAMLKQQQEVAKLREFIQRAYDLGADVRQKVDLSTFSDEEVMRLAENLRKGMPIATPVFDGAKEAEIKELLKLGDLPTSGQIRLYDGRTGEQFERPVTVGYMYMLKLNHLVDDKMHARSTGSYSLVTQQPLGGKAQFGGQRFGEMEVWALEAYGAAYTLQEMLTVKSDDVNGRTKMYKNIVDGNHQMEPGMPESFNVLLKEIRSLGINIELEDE
Sequence of E. coli RNA polymerase (P0A8T7 whole entry): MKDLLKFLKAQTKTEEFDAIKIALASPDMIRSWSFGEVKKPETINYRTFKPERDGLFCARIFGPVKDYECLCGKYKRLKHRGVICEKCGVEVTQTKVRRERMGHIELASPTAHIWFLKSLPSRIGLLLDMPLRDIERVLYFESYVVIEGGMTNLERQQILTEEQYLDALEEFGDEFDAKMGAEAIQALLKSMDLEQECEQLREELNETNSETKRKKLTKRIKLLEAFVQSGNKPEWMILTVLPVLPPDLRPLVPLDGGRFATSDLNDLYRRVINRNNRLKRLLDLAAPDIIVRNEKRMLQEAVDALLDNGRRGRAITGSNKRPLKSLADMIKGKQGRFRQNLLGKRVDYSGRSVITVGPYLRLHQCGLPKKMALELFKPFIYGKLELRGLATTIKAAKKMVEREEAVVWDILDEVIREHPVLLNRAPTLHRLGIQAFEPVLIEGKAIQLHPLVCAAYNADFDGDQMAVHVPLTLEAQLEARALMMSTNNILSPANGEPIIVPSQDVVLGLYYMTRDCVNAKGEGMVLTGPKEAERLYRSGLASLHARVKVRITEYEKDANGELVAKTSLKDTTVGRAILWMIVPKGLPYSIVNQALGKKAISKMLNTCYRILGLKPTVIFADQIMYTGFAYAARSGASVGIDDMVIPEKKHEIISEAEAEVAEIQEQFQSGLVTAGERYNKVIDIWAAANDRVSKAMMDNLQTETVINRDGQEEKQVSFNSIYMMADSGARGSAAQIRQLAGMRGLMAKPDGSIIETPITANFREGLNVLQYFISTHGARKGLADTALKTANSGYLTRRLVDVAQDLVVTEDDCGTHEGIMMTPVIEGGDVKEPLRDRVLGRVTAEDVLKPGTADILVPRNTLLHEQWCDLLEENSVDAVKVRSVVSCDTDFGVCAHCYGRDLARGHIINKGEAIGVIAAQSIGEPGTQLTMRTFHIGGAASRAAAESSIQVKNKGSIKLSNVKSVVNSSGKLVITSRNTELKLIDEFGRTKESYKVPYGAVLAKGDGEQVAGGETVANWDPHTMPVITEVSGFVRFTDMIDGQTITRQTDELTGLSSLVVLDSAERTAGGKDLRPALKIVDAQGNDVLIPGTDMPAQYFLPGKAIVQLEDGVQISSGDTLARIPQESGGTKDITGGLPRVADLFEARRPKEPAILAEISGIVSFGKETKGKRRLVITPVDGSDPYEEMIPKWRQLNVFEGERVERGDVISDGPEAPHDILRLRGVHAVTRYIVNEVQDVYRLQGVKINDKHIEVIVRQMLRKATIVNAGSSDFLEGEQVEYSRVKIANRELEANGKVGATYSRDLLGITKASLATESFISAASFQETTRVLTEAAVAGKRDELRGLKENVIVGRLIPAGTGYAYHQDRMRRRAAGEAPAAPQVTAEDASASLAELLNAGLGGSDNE
Sequence of E. coli RNA polymerase (P0A7Z4 whole entry partner): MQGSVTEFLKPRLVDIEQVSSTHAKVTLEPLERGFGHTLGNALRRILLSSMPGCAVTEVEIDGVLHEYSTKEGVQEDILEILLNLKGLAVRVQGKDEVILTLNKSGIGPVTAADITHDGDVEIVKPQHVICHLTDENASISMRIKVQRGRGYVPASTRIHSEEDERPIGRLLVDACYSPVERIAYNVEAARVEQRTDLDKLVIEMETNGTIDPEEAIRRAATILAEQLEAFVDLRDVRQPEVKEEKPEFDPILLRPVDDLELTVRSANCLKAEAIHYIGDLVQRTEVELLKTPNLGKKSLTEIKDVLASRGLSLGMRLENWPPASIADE
Sequence of E. coli RNA polymerase (P0A800 whole entry partner): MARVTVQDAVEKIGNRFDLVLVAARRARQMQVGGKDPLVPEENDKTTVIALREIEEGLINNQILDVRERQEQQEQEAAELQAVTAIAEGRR
Description: as §1

[6] = tested on: E. coli; test: Microdilution MIC, E. coli; type: cell-based; conditions: Escherichia coli
Description: (§3) Different dilutions are performed for natural product extracts.

[7] = tested on: M. catarrhalis; test: MIC, M. catarrhalis; type: cell-based; conditions: Moraxella catarrhalis
Description: as §3

[8] = tested on: M. luteus; test: MIC, M. luteus; type: cell-based; conditions: Micrococcus luteus; M. luteus ATCC9341
Description: as §3

[9] = tested on: E. cloacae; test: MIC, E. cloacae; type: cell-based; conditions: Enterobacter cloacae
Description: as §3

[10] = tested on: H. influenzae; test: MIC, H. influenzae; type: cell-based; conditions: Haemophilus influenzae
Description: as §3

[11] = tested on: S. pneumonia; test: MIC, S. pneumonia; type: cell-based
Description: as §3

[12] = tested on: S. epidermidis; test: MIC, S. epidermidis; type: cell-based; conditions: Staphylococcus epidermidis, MRSE, E-R
Description: as §3

[13] = tested on: E. faecium; test: MIC, E. faecium; type: cell-based; conditions: E. faecium Pen-R
Description: as §3

[14] = tested on: S. aureus; test: Microdilution MIC, S. aureus; type: cell-based
Description: as §3

[15] = tested on: P. aeruginosa; test: MIC, P. aeruginosa; type: cell-based; conditions: Pseudomonas aeruginosa
Description: as §3

[16] = tested on: E. faecalis; test: MIC, E. faecalis; type: cell-based
Description: as §3

[17] = tested on: K. pneumoniae; test: MIC, K. pneumoniae; type: cell-based; conditions: Klebsiella pneumoniae
Description: as §3

[18] = tested on: rifampicin susceptible and rifampicin resistant strains; test: microbe, parasite or virus in culture
Description: The MIC is reported as a range between the concentration at which no growth is observed and the concentration of the dilution which immediately followed. Selected inhibitors from the RNA polymerase screen described above were tested for their ability to inhibit bacterial growth in a broth microdilution assay as follows. […] Dilution of antimicrobial agents is performed in a sterile, covered 96-well microliter plate with flat bottom wells (Costar #9017), and each well contains 100 μL of both +/-antimicrobial agent. The final concentrations of the small molecule antimicrobial agents are 100, 50, 25, 12.5, 6.25, 3.12, 1.56, 0.78, 0.39, 0.20, 0.10, and 0.05 μg/mL, respectively. Different dilutions are performed for natural product extracts. They are first diluted 100-fold with Mueller-Hinton broth. The final dilutions of the natural product extracts are 200, 400, 800, 1600, 3200, 6400, 12800, 25600, 51200, 1×105, 2×105, and 4 ×105-fold. A 1% DMSO (no-drug) row is prepared in Mueller-Hinton broth as a control for 100% growth on each plate. A Mueller-Hinton broth only with no bacteria growth is also included as a negative control for each plate. Ampicillin and rifampicin are used as positive controls against all bacterial strains in every experiment.
The overnight culture of a single colony is diluted in sterile Mueller-Hinton broth so that, after inoculation, each well contains approximately 5×10^5 CFU/mL. Within 15 minutes of preparation, […] of the adjusted inoculum suspension is added to the microliter plate. Each well is diluted with an equal volume of the antimicrobial agent/control substance diluted with sterile Mueller-Hinton broth. The inoculated microliter plate is incubated at 35° C. for 16-20 hours. The turbidity of each well is determined by measuring the absorbance at 595 nm on the BioRad Model 3550-UV microplate reader. The rows containing broth only (no cells) serve as a control, and the rows containing the titration of 1% DMSO serve as a control for 100% growth. The average of the broth only controls is subtracted from the average of each duplicate. This value is subsequently normalized to the average of the DMSO controls.

[19] = tested on: myxopyronin-, rifampicin-, and streptolydigin-resistant S. aureus; test: Growth (optical density at 595 nm) of drug-resistant S. aureus cultured with each drug (FIG. 22); type: cell-based; conditions: FIG. 22, absorbance at 595 nm
Description: FIG. 22 is a bar graph showing the growth of bacterial cultures, measured by its optical density as measured by absorbance of light at 595 nanometers, after bacteria resistant to myxopyronins, rifampicin, and streptolydigin were cultured in the presence of each of these drugs.
The site of action of the myxopyronins on RNA polymerase was investigated by assessing the growth of myxopyronin-, rifampicin-, and streptolydigin-resistant S. aureus in the presence of the 90/10 myxopyronin A/B mixture.

[20] = Table II, read-out: MBC E. coli
[21] = rifampicin-resistant S. aureus, read-out: MBC rifR-S. aureus
[22] = read-out: MIC E. coli*, Table II, mutant strain that has permeabilized cell wall

SMILES: CCC/C(C)=C/C=C(\C)C(=O)c1c(O)cc(C(C)CC/C=C/NC(=O)OC)oc1=O (racemic) [MYXO A, (±)-Myxopyronin A]
- pIC50 [1]: 4.62
- MBC ([2]; read-out: MBC E. coli*): > 30 µg/mL
- MBC [2, 20]: > 30 µg/mL
- MBC ([3]; read-out: MBC S. aureus): 15 µg/mL (≈ 35.9 µM)
- MBC [3, 21]: 15 µg/mL (≈ 35.9 µM)
- pIC50 [4]: < 3.84
- Relative potency in the in vitro transcription assay using E. coli RNA polymerase [5]: equally potent as the natural product mixtures
- IC50 [5]: 7.19 µM
- MIC [6, 22]: 8 µg/mL (≈ 19.2 µM)

SMILES: CCCC/C(C)=C/C=C(\C)C(=O)c1c(O)cc(C(C)CC/C=C/NC(=O)OC)oc1=O (racemic) [MYXO B, (±)-myxopyronin B]
- MIC ([7]; M. catarrhalis beta lactamase negative): 0.5 µg/mL (≈ 1.16 µM)
- MIC ([7]; M. catarrhalis beta lactamase positive): 1 µg/mL (≈ 2.32 µM)
- MIC [8]: 8 µg/mL (≈ 18.5 µM)
- pIC50 [1]: 5.86
- MIC [9]: > 64 µg/mL
- MIC ([10]; ATCC49247, H. influenzae ATCC49247): 2 µg/mL (≈ 4.63 µM)
- MIC ([10]; H. influenzae non-typable): 8 µg/mL (≈ 18.5 µM)
- MIC ([11]; S. pneumonia ATCC49619): 8 µg/mL (≈ 18.5 µM)
- MIC ([11]; S. pneumonia Pen I (MIC 0.12)): 8 µg/mL (≈ 18.5 µM)
- MIC ([11]; S. pneumonia Pen I (MIC 0.25)): 8 µg/mL (≈ 18.5 µM)
- MIC ([11]; S. pneumonia Pen I (MIC 1.0)): 8 µg/mL (≈ 18.5 µM)
- MIC ([11]; S. pneumonia Pen R (MIC 2.0)): 16 µg/mL (≈ 37.1 µM)
- MIC ([11]; S. pneumonia Pen R (MIC 4.0)): 8 µg/mL (≈ 18.5 µM)
- MIC ([11]; S. pneumonia Pen S (MIC <0.06)): 8 µg/mL (≈ 18.5 µM)
- MBC ([2]; read-out: MBC E. coli*): 0.2 µg/mL (≈ 0.463 µM)
- MBC [2, 20]: > 100 µg/mL
- MIC ([12]; CC-R): 1 µg/mL (≈ 2.32 µM)
- MIC ([12]; CC-S): 4 µg/mL (≈ 9.27 µM)
- MIC ([13]; Vanco-R): > 64 µg/mL
- MIC ([13]; Vanco-S): > 64 µg/mL
- MIC ([13]; Enterococcus faecium, Vanco-R, read-out: MIC): 64 µg/mL (≈ 148 µM)
- MIC ([13]; Enterococcus faecium, Vanco-S, read-out: MIC): 64 µg/mL (≈ 148 µM)
- MBC ([3]; read-out: MBC S. aureus): 0.4 µg/mL (≈ 0.927 µM)
- MBC [3, 21]: 0.4 µg/mL (≈ 0.927 µM)
- MIC ([14]; S. aureus MRSA, E-S, CC-S): 1 µg/mL (≈ 2.32 µM)
- MIC ([14]; Staphylococcus aureus, ATCC25923, S. aureus ATCC25923, read-out: MIC): 1 µg/mL (≈ 2.32 µM)
- MIC ([14]; Staphylococcus aureus, ATCC29213, S. aureus ATCC29213, read-out: MIC): 1 µg/mL (≈ 2.32 µM)
- MIC ([14]; Staphylococcus aureus, MRSA, S. aureus MRSA, E-R, CC-S, read-out: MIC): 1 µg/mL (≈ 2.32 µM)
- MIC ([14]; Staphylococcus aureus, Table II, read-out: MIC S. aureus): 0.4 µg/mL (≈ 0.927 µM)
- MIC ([14]; Staphylococcus aureus, Table II, rifampicin-resistant S. aureus, read-out: MIC rifR-S. aureus): 0.2 µg/mL (≈ 0.463 µM)
- Fold more potent cell-based (growth inhibitory) activity than myxopyronin A ([14]; up to, over the bacteria of Table II): up to 75 fold
- MIC ([15]; P. aeruginosa ATCC27853): > 64 µg/mL
- MIC ([15]; P. aeruginosa, strain not named): > 64 µg/mL
- MIC ([16]; E. faecalis Pen-S, Vanco-S): 16 µg/mL (≈ 37.1 µM)
- MIC ([16]; Enterococcus faecalis, ATCC29212, E. faecalis ATCC29212, read-out: MIC): 16 µg/mL (≈ 37.1 µM)
- MIC ([16]; Enterococcus faecalis, E. faecalis Pen-R, Vanco-S, read-out: MIC): 8 µg/mL (≈ 18.5 µM)
- MIC ([16]; Enterococcus faecalis, E. faecalis Pen-S, Vanco-S, read-out: MIC): 32 µg/mL (≈ 74.2 µM)
- pIC50 [4]: < 3.86
- Relative potency in the in vitro transcription assay using E. coli RNA polymerase [5]: more potent molecule than A
- IC50 [5]: 1.85 µM
- MIC [17]: > 64 µg/mL
- MIC ([6]; ATCC25922, Table III, E. coli ATCC25922, read-out: MIC): > 64 µg/mL
- MIC ([6]; Table III, E. coli parent (non-permeable), read-out: MIC): > 64 µg/mL
- MIC ([6]; Table III, E. coli permeable, read-out: MIC): 1 µg/mL (≈ 2.32 µM)
- MIC [6, 22]: 0.4 µg/mL (≈ 0.927 µM)
- MIC ([6]; Table II, read-out: MIC E. coli): > 100 µg/mL

SMILES: CO[C@H]1/C=C/O[C@@]2(C)Oc3c(C)c(O)c4c(O)c(c(/C=N/N5CCN(C)CC5)c(O)c4c3C2=O)NC(=O)/C(C)=C\C=C\[C@H](C)[C@H](O)[C@@H](C)[C@@H](O)[C@@H](C)[C@H](OC(C)=O)[C@@H]1C [rifampicin]
- MIC ([18]; read-out: MIC against resistant strains, background statement b17): > 10 µM
- MIC ([18]; read-out: MIC against rifampicin resistant strains, Example 11, b337): > 100 µM
- MIC ([18]; read-out: MIC against susceptible strains, Example 11, b337): 10 µM (≈ 8.23 µg/mL)
- MIC ([18]; read-out: MIC against susceptible strains, background statement b17): ~0.01 µM (≈ 0.00823 µg/mL)
- Growth of myxopyronin resistant S. aureus strain in the presence of the drug [19]: inhibits growth
- Growth of rifampicin resistant S. aureus strain in the presence of the drug [19]: continues to grow
- Growth of streptolydigin-resistant S. aureus strain in the presence of the drug [19]: inhibited

SMILES: CNC(=O)[C@@H](C)[C@H]1C(=O)/C(=C(O)/C=C/C(C)=C/[C@@H](C)[C@H]2O[C@@]3(C)O[C@H](C=C[C@@]34CO4)[C@@H]2C)C(=O)N1[C@@H]1CC[C@H](O)[C@H](C)O1 [streptolydigin]
- Growth of myxopyronin resistant S. aureus strain in the presence of the drug [19]: inhibits growth
- Growth of rifampicin resistant S. aureus strain in the presence of the drug [19]: inhibits growth
- Growth of streptolydigin-resistant S. aureus strain in the presence of the drug [19]: continues to grow
